Results taken from US20240226228A1, “ANTIMICROBIAL PEPTOID HAVING IMPROVED SELECTIVITY AND ANTIMICROBIAL COMPOSITION COMPRISING SAME” (priority 2021, published 2024).
In brackets after ≈: the same amount, converted by molar mass. Where two headings read alike, the source gives them in different places. Where a SMILES comes first, the peptide text is derived from it. [ ]: non-standard residue; d: D form. Gly(N(CH2)2(3-indolyl)) = O=C(O)CNCCc1c[nH]c2ccccc12; Gly(N-CH2CH2-imidazol-4-yl) = O=C(O)CNCCc1c[nH]cn1; Nspe = C[C@H](NCC(=O)O)c1ccccc1; Nlys = NCCCCNCC(=O)O

Columns and labels:
red blood cells = assay: Hemolysis assay; type: cell-based, Sprague-Dawley mouse
Outline: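 Peptoid is mixed with 10% (v/v) PBS-washed erythrocytes (male Sprague-Dawley […], 13 weeks) and held 1 h at 37 °C. Hemolysis is calculated from 540 nm absorbance of the supernatant, with PBS as 0% and Triton X-100 as 100%.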

E. coli ATCC25922 = tested on: E. coli ATCC25922
Outline: (§1)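 Cation-adjusted MHB2 cultures (18 h, subcultured 4 h) adjusted to 2×10^5–5×10^5 CFU/mL in medium with 0.02% BSA and 0.001% acetic acid.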

S. aureus ATCC 25923 = tested on: S. aureus ATCC 25923
Outline: as §1

[1] = Tables 11-13, 24 hours at 37° C., maximum concentration 25 μM
[2] = Table 18, TFA salt vs counter ion-substituted (HCl, AcOH) peptoids

Row | SMILES | HC10 (red blood cells) | HC50 (red blood cells) | Hmax (100 μM) (red blood cells) | MIC E. coli ATCC25922 (E. coli ATCC25922; [1]) [µM] | MIC S. aureus ATCC 25923 (S. aureus ATCC 25923; [1]) [µM] | MIC E. coli ATCC25922 (E. coli ATCC25922; [2]) [µM] | MIC S. aureus ATCC 25923 (S. aureus ATCC 25923; [2]) [µM] | HD10 (red blood cells) | HD50 (red blood cells) | MIC E. coli ATCC25922 (E. coli ATCC25922; ATCC25922) [µM] | MIC S. aureus ATCC 25923 (S. aureus ATCC 25923; ATCC 25923) [µM]
1 | C[C@@H](c1ccccc1)N(CC(N)=O)C(=O)CN(C(=O)CN(CCCCN)C(=O)CN(C(=O)CN(CCCCN)C(=O)CN(CCCCN)C(=O)CN(CCc1c[nH]c2ccccc12)C(=O)CN(C(=O)CN(CCCCN)C(=O)CN(C(=O)CN(C(=O)CNCCCCN)[C@@H](C)c1ccccc1)[C@@H](C)c1ccccc1)[C@@H](C)c1ccccc1)[C@@H](C)c1ccccc1)[C@@H](C)c1ccccc1 [Peptoid 25] | >100/>100 μM | >100/>100 μM | 2.7 ± 0.4% | >25 | 3.1 (≈ 5.66 µg/mL) | – | – | – | – | – | –
2 | C[C@@H](c1ccccc1)N(CC(N)=O)C(=O)CN(C(=O)CN(CCCCN)C(=O)CN(C(=O)CN(C(=O)CN(CCCCN)C(=O)CN(CCc1c[nH]c2ccccc12)C(=O)CN(CCc1c[nH]c2ccccc12)C(=O)CN(CCCCN)C(=O)CN(C(=O)CN(C(=O)CNCCCCN)[C@@H](C)c1ccccc1)[C@@H](C)c1ccccc1)[C@@H](C)c1ccccc1)[C@@H](C)c1ccccc1)[C@@H](C)c1ccccc1 [Peptoid 13] | 20.2 µM | 41.3 µM | 96.8 ± 1.6% | 6.3 (≈ 12 µg/mL) | <0.8 | – | – | – | – | – | –
3 | C[C@@H](c1ccccc1)N(CC(N)=O)C(=O)CN(C(=O)CN(CCCCN)C(=O)CN(C(=O)CN(C(=O)CN(CCCCN)C(=O)CN(C(=O)CN(C(=O)CN(CCCCN)C(=O)CN(CCc1c[nH]c2ccccc12)C(=O)CN(CCc1c[nH]c2ccccc12)C(=O)CNCCCCN)[C@@H](C)c1ccccc1)[C@@H](C)c1ccccc1)[C@@H](C)c1ccccc1)[C@@H](C)c1ccccc1)[C@@H](C)c1ccccc1 [Peptoid 14-2] | 14.9 µM | 51.8 µM | 100.7 ± 17.2% | – | – | 3.1 | 1.6 | – | – | – | –
4 | C[C@@H](c1ccccc1)N(CC(=O)N(CCCCN)CC(=O)N(CCCCN)CC(=O)N(CCc1c[nH]c2ccccc12)CC(=O)N(CCc1c[nH]c2ccccc12)CC(N)=O)C(=O)CN(CCCCN)C(=O)CN(C(=O)CN(C(=O)CN(CCCCN)C(=O)CN(C(=O)CN(C(=O)CNCCCCN)[C@@H](C)c1ccccc1)[C@@H](C)c1ccccc1)[C@@H](C)c1ccccc1)[C@@H](C)c1ccccc1 [Peptoid 28] (H-[Nlys][Nspe][Nspe][Nlys][Nspe][Nspe][Nlys][Nspe][Nlys][Nlys][Gly(N(CH2)2(3-indolyl))][Gly(N(CH2)2(3-indolyl))]-NH2) | >100/>100 μM | >100/>100 μM | 8.9 ± 1.4% | 12.5 (≈ 23.3 µg/mL) | 6.3 (≈ 11.7 µg/mL) | – | – | – | – | – | –
5 | C[C@@H](c1ccccc1)N(CC(N)=O)C(=O)CN(C(=O)CN(CCCCN)C(=O)CN(CCc1c[nH]c2ccccc12)C(=O)CN(CCc1c[nH]c2ccccc12)C(=O)CN(CCCCN)C(=O)CN(C(=O)CN(C(=O)CN(CCCCN)C(=O)CN(C(=O)CN(C(=O)CNCCCCN)[C@@H](C)c1ccccc1)[C@@H](C)c1ccccc1)[C@@H](C)c1ccccc1)[C@@H](C)c1ccccc1)[C@@H](C)c1ccccc1 [Peptoid 12] | 29.1 µM | 65.2 µM | 87.4 ± 2.4% | 6.3 (≈ 12 µg/mL) | 1.6 (≈ 3.04 µg/mL) | – | – | – | – | – | –
6 | C[C@@H](c1ccccc1)N(CC(N)=O)C(=O)CN(C(=O)CN(CCCCN)C(=O)CN(C(=O)CN(C(=O)CN(CCCCN)C(=O)CN(CCc1c[nH]c2ccccc12)C(=O)CN(CCCCN)C(=O)CN(CCCCN)C(=O)CN(C(=O)CN(C(=O)CNCCCCN)[C@@H](C)c1ccccc1)[C@@H](C)c1ccccc1)[C@@H](C)c1ccccc1)[C@@H](C)c1ccccc1)[C@@H](C)c1ccccc1 [Peptoid 26] | >100/>100 μM | >100/>100 μM | 0.7 ± 0.1% | >25 | 6.3 (≈ 11.5 µg/mL) | – | – | – | – | – | –
7 | C[C@@H](c1ccccc1)N(CC(=O)N(CCCCN)CC(=O)N(CCc1c[nH]c2ccccc12)CC(=O)N(CCc1c[nH]c2ccccc12)CC(N)=O)C(=O)CN(CCCCN)C(=O)CN(CCc1c[nH]cn1)C(=O)CN(C(=O)CN(C(=O)CN(CCCCN)C(=O)CN(C(=O)CN(C(=O)CNCCCCN)[C@@H](C)c1ccccc1)[C@@H](C)c1ccccc1)[C@@H](C)c1ccccc1)[C@@H](C)c1ccccc1 [Peptoid 79] (H-[Nlys][Nspe][Nspe][Nlys][Nspe][Nspe][Gly(N-CH2CH2-imidazol-4-yl)][Nlys][Nspe][Nlys][Gly(N(CH2)2(3-indolyl))][Gly(N(CH2)2(3-indolyl))]-NH2) | – | – | 8.5 ± 0.6 | – | – | – | – | >100.0/>100.0 | >100.0/>100.0 | 6.3 (≈ 11.9 µg/mL) | 6.3 (≈ 11.9 µg/mL)
